These results are taken from patent publication US20080312230A1, “Organic Compounds” (Novartis AG, priority 2005, published 2008).

As usually defined, the Ki is the dissociation constant of the complex between target and ligand, obtained from inhibition or displacement. Broadly, the IC50 is the point on the concentration scale where inhibition reaches its midpoint. A low value points to greater potency in that assay.

In the first experiment the target is T1, CRTh2 receptor (Homo sapiens, UniProt Q9Y5Y4).
T1 construct: expressed in transfected cells; host or cells: CHO.K1 (Chinese Hamster Ovary)
T1 sequence (Q9Y5Y4 1-395): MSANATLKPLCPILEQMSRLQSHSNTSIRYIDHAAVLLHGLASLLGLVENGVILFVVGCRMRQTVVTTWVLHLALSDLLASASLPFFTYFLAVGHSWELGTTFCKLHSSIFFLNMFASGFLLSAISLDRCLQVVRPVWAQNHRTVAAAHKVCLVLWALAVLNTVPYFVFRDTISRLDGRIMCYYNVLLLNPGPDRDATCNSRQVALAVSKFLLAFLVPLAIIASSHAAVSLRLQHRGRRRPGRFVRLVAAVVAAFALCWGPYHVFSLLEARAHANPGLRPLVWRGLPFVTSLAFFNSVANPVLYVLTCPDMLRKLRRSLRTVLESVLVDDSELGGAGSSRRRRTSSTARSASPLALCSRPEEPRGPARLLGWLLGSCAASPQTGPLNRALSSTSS
As to the kind of experiment: Filtration binding assay: [3H]-PGD2 competition on CHO.K1-CRTh2 membranes. The settings on record: competition with 2.5 nM [3H]-PGD2, CHO.K1-CRTh2 membranes, Cheng-Prussoff; read-out: Ki values in the SPA binding assay. On the procedure:
Filtration Binding Assay Protocol
The binding of CRTh2 antagonists is determined using membranes prepared from human CRTh2-expressing Chinese Hamster Ovary cells (CHO.K1-CRTh2). To produce cell membranes CHO.K1-CRTh2 cells cultured in roller bottles are harvested using cell dissociation buffer (Invitrogen). The cells are pelleted by centrifugation (167 g, 5 min). The cell pellet is incubated in hypotonic buffer (15 mM Tris-OH, 2 mM MgCl2, 0.3 mM EDTA, 1 mM EGTA, 1× Complete™ tablet) at 4° C. for 30 min. At 4° C. cells are homogenized using a Polytron® (IKA Ultra Turrax T25) for 5 bursts of 1 second. The homogenate is centrifuged (Beckman Optima TM TL Ultracentrifuge, 48000 g, 30 min at 4° C.). The supernatant is discarded and the membrane pellet resuspended in homogenisation buffer (75 mM Tris-OH, 12.5 mM MgCl2, 0.3 mM EDTA, 1 mM EGTA, 250 mM Sucrose, 1× Complete™ tablet. Membrane preparations are aliquoted and stored at […]. The protein content is estimated using Bradford Protein Assay Dye (Bio Rad).
The binding of [^3H]-PGD2 (157 Ci/mmol) to CHO.K1-CRTh2 membranes is determined in the absence (total binding) and presence (non-specific binding) of unlabelled PGD2 (1 μM). Subtraction of the cpm (counts per minute) of [^3H]-PGD2 binding in presence of excess unlabelled PGD2 from that observed in the absence of excess unlabelled PGD2 is defined as specific binding. Active CRTh2 antagonists are able to compete with [^3H]-PGD2 for binding to the CRTh2 receptor and are identified in a decrease in the number of cpm bound.
The assay is performed in Greiner U-bottomed 96 well-plates, in a final volume of 100 μl per well. CHO.K1-CRTh2 membranes were diluted in assay buffer (10 mM HEPES-KOH (pH 7.4), 1 mM EDTA and 10 mM MnCl2) and 10 μg are added to each well. [^3H]-PGD2 is diluted in assay buffer and added to each well at a final concentration of 2.5 nM. To determine non-specific binding, [^3H]-PGD2 binding to the CRTh2 receptor is competed with using unlabelled PGD2 at a final well concentration of 1 μM. The experiment is done in triplicate, with reagents added to the wells as follows:
25 μL assay buffer for total binding or
25 μL PGD2 to determine non-specific binding
25 μL test compound in DMSO/assay buffer
The plates are incubated at room temperature on a shaker for 1 hour, and then harvested (Tomtec Harvester 9600) onto GF/C filter plates using wash buffer (10 mM HEPES-KOH, pH 7.4). The plate is dried for 2 hours, prior to addition of Micro-Scint 20™ (50 μL) and sealing with TopSeal-S™. Plates are then counted using a Packard Top Count instrument, Plates are then read on the Packard Topcount with the 3H Scintillation program (1 min per well).
Ki (dissocation constant for the inhibition) values for the CRTh2 antagonists are reported. Ki values are determined using Sigma Plot™ software, using the Cheng-Prussoff equation.
Where S is the Concentration of Radioligand and Kd is the Dissociation Constant.
As for `Cc1c(CC(=O)O)c2cccnc2n1C(C)c1ccc(S(C)(=O)=O)cc1` (single isomer, unassigned) [Example 97, {1-[1-(4-Methanesulfonyl-phenyl)-ethyl]-2-methyl-1H-pyrrolo[2,3-b]pyridin-3-yl}-acetic acid], the Ki was found to be 11 nM.

With `Cc1c(CC(=O)O)c2cccnc2n1C(C)c1ccc(Cl)cc1` (stereo not drawn) [Example 84, {1-[1-(4-Chloro-phenyl)-ethyl]-2-methyl-1H-pyrrolo[2,3-b]pyridin-3-yl}-acetic acid], the Ki came out at 100 nM.

Take `Cc1c(CC(=O)O)c2cccnc2n1Cc1ccc(S(C)(=O)=O)cc1Cl` [Example 90, [1-(2-Chloro-4-methanesulfonyl-benzyl)-2-methyl-1H-pyrrolo[2,3-b]pyridin-3-yl]-acetic acid]: the Ki came to 3 nM.

As to `Cc1c(CC(=O)O)c2cccnc2n1Cc1ccc(S(C)(=O)=O)c(C(F)(F)F)c1` [Example 92, [1-(4-Methanesulfonyl-3-trifluoromethyl-benzyl)-2-methyl-1H-pyrrolo[2,3-b]pyridin-3-yl]-acetic acid], the inhibitory constant (Ki) turned out to be 22 nM.

Turning to `CCS(=O)(=O)c1ccc(Cn2c(C)c(CC(=O)O)c3cccnc32)c(C(F)(F)F)c1` [Example 93, [1-(4-Ethanesulfonyl-2-trifluoromethyl-benzyl)-2-methyl-1H-pyrrolo[2,3-b]pyridin-3-yl]-acetic acid], the Ki came out at 8 nM.

Turning to `CCS(=O)(=O)c1ccc(Cn2c(C)c(CC(=O)O)c3cccnc32)c(Cl)c1` [Example 94, [1-(2-Chloro-4-ethanesulfonyl-benzyl)-2-methyl-1H-pyrrolo[2,3-b]pyridin-3-yl]-acetic acid], the Ki came to 7 nM.

For the molecule `Cc1c(CC(=O)O)c2cccnc2n1Cc1ccc(S(C)(=O)=O)cc1` [Example 96], the Ki worked out at 29 nM.

`Cc1c(CC(=O)O)c2ccc(Cl)nc2n1Cc1ccc(S(C)(=O)=O)cc1` [Example 99, [6-Chloro-1-(4-methanesulfonyl-benzyl)-2-methyl-1H-pyrrolo[2,3-b]pyridin-3-yl]-acetic acid]: the Ki worked out at 12 nM.

For `Cc1c(CC(=O)O)c2ccc(Cl)nc2n1Cc1ccc(S(C)(=O)=O)cc1C(F)(F)F` [Example 100, [6-Chloro-1-(4-methanesulfonyl-2-trifluoromethyl-benzyl)-2-methyl-1H-pyrrolo[2,3-b]pyridin-3-yl]-acetic acid], the Ki amounted to 5 nM.

For `COc1cc(S(=O)(=O)n2c(C)c(CC(=O)O)c3cccnc32)ccc1F` [Example 102, [1-(4-Fluoro-3-methoxy-benzenesulfonyl)-2-methyl-1H-pyrrolo[2,3-b]pyridin-3-yl]-acetic acid], the Ki was 56 nM.

As for `Cc1c(CC(=O)O)c2cccnc2n1S(=O)(=O)c1ccc(Cl)c(C#N)c1` [Example 103, [1-(4-Chloro-3-cyano-benzenesulfonyl)-2-methyl-1H-pyrrolo[2,3-b]pyridin-3-yl]-acetic acid], the Ki was 35 nM.

Turning to `Cc1c(CC(=O)O)c2cccnc2n1Cc1ccc(S(=O)(=O)C(C)C)cc1` [Example 105, {2-Methyl-1-[4-(propane-2-sulfonyl)-benzyl]-1H-pyrrolo[2,3-b]pyridin-3-yl}-acetic acid], the Ki turned out to be 98 nM.

Regarding `Cc1cc(S(C)(=O)=O)ccc1Cn1c(C)c(CC(=O)O)c2cccnc21` [Example 112, [1-(4-Methanesulfonyl-2-methyl-benzyl)-2-methyl-1H-pyrrolo[2,3-b]pyridin-3-yl]-acetic acid], the Ki turned out to be 31 nM.

`Cc1c(CC(=O)O)c2cccnc2n1C(C)c1ccc(C(F)(F)F)cc1` (stereo not drawn) [Example 115, {2-Methyl-1-[1-(4-trifluoromethyl-phenyl)-ethyl]-1H-pyrrolo[2,3-b]pyridin-3-yl}-acetic acid]: the Ki was found to be 45 nM.

With `Cc1c(CC(=O)O)c2cccnc2n1C(C)c1ccc(S(C)(=O)=O)cc1` (stereo not drawn) [Example 117, {1-[1-(4-Methanesulfonyl-phenyl)-ethyl]-2-methyl-1H-pyrrolo[2,3-b]pyridin-3-yl}-acetic acid], the Ki was found to be 25 nM.

Take `Cc1c(CC(=O)O)c2cccnc2n1Cc1ccc(C(F)(F)F)cc1C(F)(F)F` [Example 119, [1-(2,4-Bis-trifluoromethyl-benzyl)-2-methyl-1H-pyrrolo[2,3-b]pyridin-3-yl]-acetic acid]: the Ki stood at 29 nM.

As to `Cc1c(CC(=O)O)c2cccnc2n1Cc1ccc([N+](=O)[O-])cc1` [Example 122, [2-Methyl-1-(4-nitro-benzyl)-1H-pyrrolo[2,3-b]pyridin-3-yl]-acetic acid], the Ki was determined as 147 nM.

For the molecule `Cc1c(CC(=O)O)c2cccnc2n1Cc1ccc(S(C)(=O)=O)c(Cl)c1` [Example 125, [1-(3-Chloro-4-methanesulfonyl-benzyl)-2-methyl-1H-pyrrolo[2,3-b]pyridin-3-yl]-acetic acid], the Ki worked out at 27 nM.

For the molecule `CCOc1cc(S(=O)(=O)n2c(C)c(CC(=O)O)c3cccnc32)ccc1C#N` [Example 127, [1-(4-Cyano-3-ethoxy-benzenesulfonyl)-2-methyl-1H-pyrrolo[2,3-b]pyridin-3-yl]-acetic acid], the Ki turned out to be 43 nM.

Consider `COc1cc(S(=O)(=O)n2c(C)c(CC(=O)O)c3cccnc32)ccc1C#N` [Example 129, [1-(4-Cyano-3-methoxy-benzenesulfonyl)-2-methyl-1H-pyrrolo[2,3-b]pyridin-3-yl]-acetic acid], for which the Ki was found to be 43 nM.

For `CCCOc1cc(S(=O)(=O)n2c(C)c(CC(=O)O)c3cccnc32)ccc1C#N` [Example 130, [1-(4-Cyano-3-propoxy-benzenesulfonyl)-2-methyl-1H-pyrrolo[2,3-b]pyridin-3-yl]-acetic acid], the Ki came to 50 nM.

As for `COc1cc(S(=O)(=O)n2c(C)c(CC(=O)O)c3cccnc32)ccc1Cl` [Example 148, [1-(4-Chloro-3-methoxy-benzenesulfonyl)-2-methyl-1H-pyrrolo[2,3-b]pyridin-3-yl]-acetic acid], the Ki is 64 nM.

For another experiment, the target named is T1, CRTh2 receptor. As to the kind of experiment: CRTH2 cAMP functional assay in CHO.K1-CRTh2 cells. Type of experiment: cell-based.
Details: not given
How it is done:
The assay plate is incubated at room temperature on a shaker for 15 minutes.
A mix of agonist (10 nM Prostaglandin D2) and 5 μM forskolin is prepared in assay stimulation buffer and added to the assay plate (5 μL/well).
In addition, a cAMP standard is serially diluted in assay stimulation buffer and added to separate empty wells on the assay plate (20 μL/well).
The assay plate is incubated at room temperature on a shaker for 60 minutes.
The resulting lysis mix is added to all wells of the assay plate (40 μL/well).
The assay plate is sealed with Topseal-S™ and incubated in the dark at room temperature on a shaker for 45 minutes. The plate is then counted using a Packard Fusion™ instrument.
The resulting counts per minute are converted to nM cAMP by using the prepared cAMP standard curve.
`Cc1c(CC(=O)O)c2cccnc2n1S(=O)(=O)c1ccc([N+](=O)[O-])cc1` [Example 3]: the IC50 came to 276 nM.

For the molecule `Cc1c(CC(=O)O)c2cccnc2n1C(C)c1ccc(Cl)cc1` (stereo not drawn) [Example 84, {1-[1-(4-Chloro-phenyl)-ethyl]-2-methyl-1H-pyrrolo[2,3-b]pyridin-3-yl}-acetic acid], the IC50 worked out at 84 nM. Compared with the last molecule, the IC50 is about 3.3-fold lower.
